“And” between values parts separate entries of the source, which are not always exact repeats. Equal entries are not always repeated.

Data set [1] relates to adenoid cystic carcinomas of the salivary gland. Particulars: despite increased expression of c-kit; cited from earlier work.
The target in data set [2] is T1, CYP2A6 (Homo sapiens, UniProt P11509).
T1 sequence (P11509 1-494): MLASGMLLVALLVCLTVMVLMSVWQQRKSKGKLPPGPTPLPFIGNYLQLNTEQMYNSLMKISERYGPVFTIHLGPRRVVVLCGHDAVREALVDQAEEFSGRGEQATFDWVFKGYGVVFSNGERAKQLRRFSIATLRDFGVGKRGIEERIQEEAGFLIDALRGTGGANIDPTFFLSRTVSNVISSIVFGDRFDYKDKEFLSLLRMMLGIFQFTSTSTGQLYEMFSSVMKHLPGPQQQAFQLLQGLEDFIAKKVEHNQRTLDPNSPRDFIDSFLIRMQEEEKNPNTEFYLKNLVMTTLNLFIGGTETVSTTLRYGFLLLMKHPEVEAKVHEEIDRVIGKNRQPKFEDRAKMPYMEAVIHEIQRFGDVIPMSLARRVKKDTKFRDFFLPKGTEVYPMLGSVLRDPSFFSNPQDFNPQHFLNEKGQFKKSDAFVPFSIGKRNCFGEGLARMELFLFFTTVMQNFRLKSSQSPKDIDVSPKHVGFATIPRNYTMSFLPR
The settings on record: off-target effect; cited from earlier work.

Data set [3] concerns the target CYP2C19 (Homo sapiens, UniProt P33261). The settings on record: off-target effect; cited from earlier work.
The test system of data set [4] is ER+/HER2− metastatic BC. The data set is described as follows: Retrospective study: tumor response and survival of metastatic BC patients treated with CDK4/6 inhibitors. It is filed as in vivo, human. Particulars: palbociclib N=10, ribociclib N=14; for Non-responders (NR): at least 20% increase in sum of diameters of target tumors after 6 months; for Responders (R): at least 30% decrease in sum of diameters of target tumors after 6 months. The source says:
Here we describe a retrospective study analyzing plasma-based metabolites from a baseline (BL) sample and after 2-months (2M) of treatment of 24 women with ER+/HER2− metastatic BC treated with CDK4/6 inhibitors, palbociclib or ribociclib.

CYP2C19, sequence (P33261 whole entry): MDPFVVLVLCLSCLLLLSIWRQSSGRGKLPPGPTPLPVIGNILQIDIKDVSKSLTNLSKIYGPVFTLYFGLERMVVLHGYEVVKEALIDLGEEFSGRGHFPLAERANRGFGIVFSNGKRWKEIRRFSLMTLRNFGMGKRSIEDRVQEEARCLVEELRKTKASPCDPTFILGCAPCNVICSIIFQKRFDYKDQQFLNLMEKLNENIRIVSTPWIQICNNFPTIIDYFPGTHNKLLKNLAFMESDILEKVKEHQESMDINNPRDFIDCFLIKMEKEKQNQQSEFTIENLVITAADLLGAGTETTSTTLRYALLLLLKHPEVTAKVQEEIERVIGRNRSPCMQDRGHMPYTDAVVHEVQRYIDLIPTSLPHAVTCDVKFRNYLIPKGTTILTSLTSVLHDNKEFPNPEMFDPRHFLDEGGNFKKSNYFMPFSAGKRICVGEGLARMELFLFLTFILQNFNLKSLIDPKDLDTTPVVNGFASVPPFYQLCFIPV

In the case of `Cc1ccc(NC(=O)c2ccc(CN3CCN(C)CC3)cc2)cc1Nc1nccc(-c2cccnc2)n1` [imatinib], the “effect on adenoid cystic carcinomas of the salivary gland” value in data set [1] is on record as “no effect”.

For `N#Cc1ccc(C(c2ccc(C#N)cc2)n2cncn2)cc1` [letrozole], the “inhibition of CYP2A6” value in data set [2] is reported as “inhibits”. In data set [3], the “inhibition of CYP2C19” value was “inhibits”.

On to `CC(=O)c1c(C)c2cnc(Nc3ccc(N4CCNCC4)cn3)nc2n(C2CCCC2)c1=O` [palbociclib], for which, in data set [4], the “Non-responders (NR)” value is 3 patients and the “Responders (R)” value is on record as 7.

With `CN(C)C(=O)c1cc2cnc(Nc3ccc(N4CCNCC4)cn3)nc2n1C1CCCC1` [ribociclib], in data set [4], the “Non-responders (NR)” value is 7 patients and 6 patients; the “Responders (R)” value is 8.

Values taken from US20230087439A1, “Nmr-Metabolite-Signature For Identifying Cancer Patients Resistant To Cdk4/6 Inhibitors, Endocrine Therapy and Anti-HER2 Therapy” (Olaris, inc., priority 2018, published 2023).
